# Assay results taken from US9487513B2, “Substituted pyrazolo[1,5-A]pyridines, their preparation and use as medicaments” (LABORATORIOS DEL DR. ESTEVE S.A., priority 2012, dated 2016).
# Counter-ions that a name gives are not always drawn.
# Target: T1, σ1-receptor (Cavia porcellus, UniProt Q60492)
# T1 construct: Guinea pig brains were homogenized in 10 vols; (w/v) of Tris-HCl 50 mM 0.32 M sucrose; from tissue; host or cells: guinea pig brain membranes
# Test: σ1-receptor binding assay, [3H]-(+)-pentazocine, guinea pig brain membranes
# Settings: radioligand [3H]-(+)-pentazocine at 5.0 nM; guinea pig brain membrane; 150 min at 37° C.; nonspecific binding with 1 μM haloperidol
# Description: Brain membrane preparation and binding assays for the σ1-receptor were performed as described (DeHaven-Hudkins, D. L., L. C. Fleissner, and F. Y. Ford-Rice, 1992, Characterization of the binding of [^3H](+)pentazocine to σ recognition sites in guinea pig brain, Eur. J. Pharmacol. 227, 371-378) with some modifications. Guinea pig brains were homogenized in 10 vols. (w/v) of Tris-HCl 50 mM 0.32 M sucrose, pH 7.4, with a Kinematica Polytron PT 3000 at 15000 r.p.m. for 30 s. The homogenate was centrifuged at 1000 g for 10 min at 4° C. and the supernatants collected and centrifuged again at 48000 g for 15 min at 4° C. The pellet was resuspended in 10 volumes of Tris-HCl buffer (50 mM, pH 7.4), incubated at 37° C. for 30 min, and centrifuged at 48000 g for 20 min at 4° C. Following this, the pellet was re-suspended in fresh Tris-HCl buffer (50 mM, pH 7.4) and stored on ice until use.
# The radioligand used was [^3H]-(+)-pentazocine at 5.0 nM and the final volume was 200 μl. The incubation was initiated with the addition of 100 μl of membrane at a final tissue concentration of approximately 5 mg tissue net weight/mL and the incubation time was 150 m. at 37° C. After incubation, the membranes were collected onto pretreated glass fiber filterplate (MultiScreen-FC, Millipore), with polyethylenimine 0.1%. The filters were washed two times with 200 μl of washing buffer (50 mM Tris Cl, pH=7.4) and then 25 μl of Ecoscint H liquid scintillation cocktail were added. Microplates were allowed to set for several hours and then quantified by liquid scintillation spectrophotometry (1450 Microbeta, Wallac). Nonspecific binding was determined with 1 μM haloperidol.
# T1 sequence (Q60492 whole entry): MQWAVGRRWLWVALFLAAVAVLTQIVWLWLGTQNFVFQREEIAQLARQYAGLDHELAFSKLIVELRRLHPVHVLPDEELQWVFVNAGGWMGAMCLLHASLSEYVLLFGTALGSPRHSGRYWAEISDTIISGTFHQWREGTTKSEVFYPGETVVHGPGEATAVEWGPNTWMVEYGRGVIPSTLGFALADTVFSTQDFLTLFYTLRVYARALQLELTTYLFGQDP
row,SMILES,Ki [nM]
1,"CCCN(CCCCOCc1cc2ccccn2n1)CC1CC1 [Example 3, N-(cyclopropylmethyl)-N-propyl-4-(pyrazolo[1,5-a]pyridin-2-ylmethylpyrazolo[1,5-a]pyridin-2-ylmethoxy)butan-1-amine maleate]",90.1
2,"c1ccn2nc(OCCCCN3CCCCC3)cc2c1 [Example 18, 2-(4-(piperidin-1-yl)butoxy)pyrazolo[1,5-a]pyridine oxalate]",14.7
3,"CC(C)N1CCN(CCCCOc2cc3n(n2)CCCC3)CC1 [Example 92, 2-(4-(4-isopropylpiperazin-1-yl)butoxy)-4,5,6,7-tetrahydropyrazolo[1,5-a]pyridine maleate]",182
4,"c1ccc2c(c1)COC21CCN(CCCCOCc2cc3ccccn3n2)CC1 [Example 6, 1′-(4-(pyrazolo[l,5-a]pyridin-2-ylmethylpyrazolo[1,5-a]pyridin-2-ylmethoxy)butyl)-3H-spiro[isobenzofuran-1,4′-piperidine] maleate]",23.3
5,"CN1CCCN(CCCCOc2cc3n(n2)CCCC3)CC1 [Example 96, 2-(4-(4-methyl-1,4-diazepan-1-yl)butoxy)-4,5,6,7-tetrahydropyrazolo[1,5-a]pyridine maleate]",180
6,"c1ccn2nc(OCCCCN3CCN(C4CCCCC4)CC3)cc2c1 [Example 29, 2-(4-(4-cyclohexylpiperazin-1-yl)butoxy)pyrazolo[1,5-a]pyridine dimaleate]",11.3
7,"CN(CCOc1cc2ccccn2n1)Cc1ccccc1 [Example 24, N-benzyl-N-methyl-2-(pyrazolo[1,5-a]pyridin-2-yloxy)ethanamine oxalate]",4.5
8,"CN(CCCCOc1cc2ccccn2n1)CCc1ccccc1 [Example 31, N-methyl-N-phenethyl-4-(pyrazolo[1,5-a]pyridin-2-yloxy)butan-1-amine hydrochloride]",21
9,"CC(C)(C)C1CCN(CCCCOc2nn3c(c2Cl)CCCC3)CC1 [Example 105, 2-(4-(4-tert-butylpiperidin-1-yl)butoxy)-3-chloro-4,5,6,7-tetrahydropyrazolo[1,5-a]pyridine maleate]",13.3
10,"c1ccn2nc(OCCN3CCC4CCCCC4C3)cc2c1 (stereo not shown) [Example 42, 2-(2-(pyrazolo[1,5-a]pyridin-2-yloxy)ethyl)decahydroisoquinoline maleate]",3.6
11,"CN(CCOc1nn2ccccc2c1I)Cc1ccccc1 [Example 106, N-benzyl-2-(3-iodopyrazolo[1,5-a]pyridin-2-yloxy)-N-methylethanamine oxalate]",5.8
12,"c1c(OCCCCN2CCCC2)nn2c1CCCC2 [Example 59, 2-(4-(pyrrolidin-1-yl)butoxy)-4,5,6,7-tetrahydropyrazolo[1,5-a]pyridine oxalate]",167
13,"c1ccn2nc(OCCCCN3CCN(C4CCCCC4)CC3)cc2c1 [Example 28, 2-(4-(4-cyclohexylpiperazin-1-yl)butoxy)pyrazolo[1,5-a]pyridine]",19.9
14,"c1c(OCCCCN2CCCCC2)nn2c1CCCC2 [Example 60, 2-(4-(piperidin-1-yl)butoxy)-4,5,6,7-tetrahydropyrazolo[1,5-a]pyridine oxalate]",40.7
15,"c1ccc(C2CCN(CCCCOc3cc4n(n3)CCCC4)CC2)cc1 [Example 63, 2-(4-(4-phenylpiperidin-1-yl)butoxy)-4,5,6,7-tetrahydropyrazolo[1,5-a]pyridine oxalate]",9.2
16,"c1ccc2cc(C3CCN(CCCCOc4cc5ccccn5n4)CC3)ccc2c1 [Example 26, 2-(4-(4-(naphthalen-2-yl)piperidin-1-yl)butoxy)pyrazolo[1,5-a]pyridine]",11
17,"CCN1CCN(CCCCOc2cc3n(n2)CCCC3)CC1 [Example 98, 2-(4-(4-ethylpiperazin-1-yl)butoxy)-4,5,6,7-tetrahydropyrazolo[1,5-a]pyridine maleate]",138
18,"c1ccc(N2CCN(CCCCOc3cc4ccccn4n3)CC2)cc1 [Example 25, 2-(4-(4-phenylpiperazin-1-yl)butoxy)pyrazolo[1,5-a]pyridine oxalate]",19.6

# Second part, the molecule after the results:
row,Ki [nM],SMILES
1,28.5,"CCCN(CCOc1cc2n(n1)CCCC2)CC1CC1 [Example 90, N-(cyclopropylmethyl)-N-(2-(4,5,6,7-tetrahydropyrazolo[1,5-a]pyridin-2-yloxy)ethyl)propan-1-amine maleate]"
2,37.1,"c1c(OCCCN2CCN(C3CCCCC3)CC2)nn2c1CCCC2 [Example 100, 2-(3-(4-cyclohexylpiperazin-1-yl)propoxy)-4,5,6,7-tetrahydropyrazolo[1,5-a]pyridine maleate]"
3,6.35,"CC(C)(C)C1CCN(CCOc2cc3ccccn3n2)CC1 [Example 39, 2-(2-(4-tert-butylpiperidin-1-yl)ethoxy)pyrazolo[1,5-a]pyridine maleate]"
4,195,"CC(C)N1CCN(CCOc2cc3n(n2)CCCC3)CC1 [Example 91, 2-(2-(4-isopropylpiperazin-1-yl)ethoxy)-4,5,6,7-tetrahydropyrazolo[1,5-a]pyridine maleate]"
5,48.1,"c1c(OCCCN2CCCOCC2)nn2c1CCCC2 [Example 101, 4-(3-(4,5,6,7-tetrahydropyrazolo[1,5-a]pyridin-2-yloxy)propyl)-1,4-oxazepane]"
6,15.7,"c1ccc2c(c1)CCN(CCCCOc1cc3n(n1)CCCC3)C2 [Example 84, 2-(4-(4,5,6,7-tetrahydropyrazolo[1,5-a]pyridin-2-yloxy)butyl)-1,2,3,4-tetrahydroisoquinoline maleate]"
7,25.9,"c1c(OCCN2CCCCCC2)nn2c1CCCC2 [Example 53, 2-(2-(azepan-1-yl)ethoxy)-4,5,6,7-tetrahydropyrazolo[1,5-a]pyridine maleate]"
8,8.4,"c1c(OCCCCN2CCSCC2)nn2c1CCCC2 [Example 86, 4-(4-(4,5,6,7-tetrahydropyrazolo[1,5-a]pyridin-2-yloxy)butyl)thiomorpholine maleate]"
9,7.3,"c1c(OCCCCN2CCC3CCCCC3C2)nn2c1CCCC2 (stereo not shown) [Example 68, 2-(4-(4,5,6,7-tetrahydropyrazolo[1,5-a]pyridin-2-yloxy)butyl)decahydroisoquinoline maleate]"
10,12.8,"c1c(OCCCCN2CC[C@H]3CCCC[C@@H]3C2)nn2c1CCCC2 [Example 81, (4aR,8aS)-2-(4-(4,5,6,7-tetrahydropyrazolo[1,5-a]pyridin-2-yloxy)butyl)decahydroisoquinoline maleate]"
11,37.6,"c1ccn2nc(COCCN3CCCCCC3)cc2c1 [Example 2, 2-((2-(azepan-1-yl)ethoxy)methyl)pyrazolo[1,5-a]pyridine maleate]"
12,118,"c1ccn2nc(OCCCCN3CCOCC3)cc2c1 [Example 17, 4-(4-(pyrazolo[1,5-a]pyridin-2-yloxy)butyl)morpholine oxalate]"
13,2.95,"CN(CCOc1nn2c(c1I)CCCC2)Cc1ccccc1 [Example 107, N-benzyl-2-(3-iodo-4,5,6,7-tetrahydropyrazolo[1,5-a]pyridin-2-yloxy)-N-methylethanamine oxalate]"
14,25,"CCCN(CCCCOc1cc2n(n1)CCCC2)CC1CC1 [Example 80, N-(cyclopropylmethyl)-N-propyl-4-(4,5,6,7-tetrahydropyrazolo[1,5-a]pyridin-2-yloxy)butan-1-amine maleate]"
15,10.1,"c1c(OCCCCN2CCCOCC2)nn2c1CCCC2 [Example 89, 4-(4-(4,5,6,7-tetrahydropyrazolo[1,5-a]pyridin-2-yloxy)butyl)-1,4-oxazepane maleate]"
16,15.4,"CN(CCOc1cc2n(n1)CCCC2)Cc1ccccc1 [Example 64, N-benzyl-N-methyl-2-(4,5,6,7-tetrahydropyrazolo[1,5-a]pyridin-2-yloxy)ethanamine oxalate]"
17,20,"c1ccc2c(c1)CCN(CCCCOc1cc3ccccn3n1)C2 [Example 36, 2-(4-(pyrazolo[1,5-a]pyridin-2-yloxy)butyl)-1,2,3,4-tetrahydroisoquinoline maleate]"
18,8.1,"CN(CCCCOc1cc2n(n1)CCCC2)Cc1ccccc1 [Example 82, N-benzyl-N-methyl-4-(4,5,6,7-tetrahydropyrazolo[1,5-a]pyridin-2-yloxy)butan-1-amine maleate]"
19,35,"CN(CCOc1cc2n(n1)CCCC2)C1CCN(Cc2ccccc2)CC1 [Example 72, 1-benzyl-N-methyl-N-(2-(4,5,6,7-tetrahydropyrazolo[1,5-a]pyridin-2-yloxy)ethyl)piperidin-4-amine maleate]"
20,28.1,"CCCN(CCOc1cc2ccccn2n1)CC1CC1 [Example 43, N-(cyclopropylmethyl)-N-(2-(pyrazolo[1,5-a]pyridin-2-yloxy)ethyl)propan-1-amine maleate]"
21,74.9,"CCN(CC)CCCCOc1cc2ccccn2n1 [Example 19, N,N-diethyl-4-(pyrazolo[1,5-a]pyridin-2-yloxy)butan-1-amine oxalate]"
22,9.7,"c1ccn2nc(OCCCCNC3CCCCC3)cc2c1 [Example 50, N-(4-(pyrazolo[1,5-a]pyridin-2-yloxy)butyl)cyclohexanamine maleate]"
